Results as given in US20140057915A1, “KINASE INHIBITORS” (TOPIVERT PHARMA LIMITED, priority 2012, published 2014).
Where two headings read alike, the source gives them in different places.

What was measured:
Syk = Syk (Homo sapiens, UniProt P43405); test: Syk enzyme inhibition (FRET); format: biochemical
How it was run: (§1)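 Kinase activity is measured on a dual-labelled synthetic peptide by FRET. ATP is supplied as an 800 μM solution for c-Src and a 60 μM solution for Syk. Compound is tested at four added concentrations, 4 to 0.004 μg/mL.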

d-U937 cells = test: Cell viability: MTT assay; format: cell-based, human; details: 1 μg/mL
How it was run: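 MTT reduction (1 h, DMSO solubilisation, A550) measured after compound treatment at 1 or 10 μg/mL of differentiated U937 cells for 4 h (5% FCS RPMI1640) or 24 h (10% FCS). Percentage viability loss computed relative to 0.5% DMSO vehicle, with increases tabulated as negative values.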

[1] = biological target: p38 MAPKα isoform (MAPK14) (Homo sapiens, UniProt Q16539); test: p38 MAPKα enzyme inhibition (FRET, Z-LYTE), Method 1; format: biochemical; details: Table 4a1
p38 MAPKα isoform (MAPK14), sequence (Q16539 whole entry, canonical isoform): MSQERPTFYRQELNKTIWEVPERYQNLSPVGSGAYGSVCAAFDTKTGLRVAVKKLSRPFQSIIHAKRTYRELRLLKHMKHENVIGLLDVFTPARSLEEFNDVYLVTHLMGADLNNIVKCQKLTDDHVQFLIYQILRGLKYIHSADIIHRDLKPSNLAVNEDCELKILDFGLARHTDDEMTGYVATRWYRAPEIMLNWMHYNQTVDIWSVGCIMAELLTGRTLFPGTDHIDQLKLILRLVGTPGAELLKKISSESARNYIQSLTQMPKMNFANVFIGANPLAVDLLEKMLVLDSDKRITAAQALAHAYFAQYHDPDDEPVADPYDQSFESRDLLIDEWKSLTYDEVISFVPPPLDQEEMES
Experimental: The enzyme inhibitory activities of compounds disclosed herein are determined by FRET using synthetic peptides labelled with both donor and acceptor fluorophores (Z-LYTE, Invitrogen Ltd., Paisley, UK).
The following two assay variants are used for determination of p38 MAPKα inhibition.
The inhibitory activities of test compounds against the p38 MAPKα isoform (MAPK14: Invitrogen), are evaluated indirectly by determining the level of activation/phosphorylation of the down-stream molecule, MAPKAP-K2. The p38 MAPKα protein (80 ng/mL, 2.5 μL) is mixed with the test compound (2.5 μL of either 4 μg/mL, 0.4 μg/mL, 0.04 μg/mL or 0.004 μg/mL) for 2 hr at RT. […] The mixture is incubated for 1 hr at RT. Development reagent (protease, 5 μL) is added for 1 hr prior to detection in a fluorescence microplate reader (Varioskan® Flash, ThermoFisher Scientific).
In all cases, the site-specific protease cleaves non-phosphorylated peptide only and eliminates the FRET signal. Phosphorylation levels of each reaction are calculated using the ratio of coumarin emission (donor) over fluorescein emission (acceptor), for which high ratios indicate high phosphorylation and low ratios indicate low phosphorylation levels.

[2] = system: IL-8 release, d-U937 cells; test: LPS-induced IL-8 release in d-U937 cells; format: cell-based; details: Homo sapiens, dU937
How it was run: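 IL-8 release after a 4 hr challenge with LPS (0.1 μg/mL, E. coli 0111:B4) following a 2 hr compound pretreatment. Cells were human U937 monocytes differentiated to macrophage-type with PMA 100 ng/mL for 48–72 hr. Relative 50% effective concentration derived from concentration–response data.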

[3] = system: TNFα release, d-U937 cells; test: LPS-induced TNFα release in d-U937 cells; format: cell-based; details: Homo sapiens, dU937; for EC50: relative to 10 μg/mL BIRB796, Table 4c1, read-out: LPS Induced Release of Cytokine in d-U937 Cells, TNFα REC50
How it was run: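 Sandwich ELISA quantifies cytokine in supernatants after 4 hr LPS challenge (0.1 μg/mL) of PMA-differentiated (100 ng/mL, 48–72 hr) U937 macrophages given compound 2 hr beforehand. REC50 derived from concentration-response curve, inhibition calculated relative to vehicle.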

[4] = system: ICAM-1 expression, BEAS2B cells; test: Poly I:C-induced ICAM-1 expression in BEAS2B cells; format: cell-based; details: Homo sapiens, BEAS-2B; read-out: Poly IC induced ICAM1 in BEAS2B, IC50
How it was run: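 Cell-based ELISA for surface ICAM-1 in human BEAS2B cells 18 h after transfection with the RNA-virus mimic poly I:C (1 μg/mL, with Oligofectamine), compounds added 2 h beforehand. OD450–655 divided by Crystal Violet OD595 per well; percent inhibition relative to vehicle.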

GSK3α [5] = biological target: T1, GSK3α (Homo sapiens, UniProt P49840); test: GSK 3α enzyme inhibition (FRET), Method 1; format: biochemical; details: Table 4a1
T1 sequence (P49840 whole entry): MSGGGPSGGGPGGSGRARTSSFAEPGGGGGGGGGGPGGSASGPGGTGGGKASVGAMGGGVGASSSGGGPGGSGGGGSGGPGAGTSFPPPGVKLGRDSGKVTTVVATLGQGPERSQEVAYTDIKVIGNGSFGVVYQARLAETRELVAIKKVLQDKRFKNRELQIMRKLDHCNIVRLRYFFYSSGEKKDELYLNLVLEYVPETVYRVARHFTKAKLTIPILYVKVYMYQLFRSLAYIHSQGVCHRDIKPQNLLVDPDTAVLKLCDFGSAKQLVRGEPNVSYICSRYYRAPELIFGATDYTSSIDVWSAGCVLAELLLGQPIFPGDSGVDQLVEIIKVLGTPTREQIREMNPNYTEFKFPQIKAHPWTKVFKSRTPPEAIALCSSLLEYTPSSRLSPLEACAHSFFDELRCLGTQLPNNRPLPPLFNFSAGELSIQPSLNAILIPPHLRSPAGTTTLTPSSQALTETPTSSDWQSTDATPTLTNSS
How it was run: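 Compounds are tested at added-solution levels of 4, 0.4, 0.04 or 0.004 μg/mL against GSK3α, with a 2 hr RT preincubation. Kinase reaction with FRET peptide and ATP (8 μM and 40 μM as added) runs 1 hr, and phosphorylation is judged by the protease-sensitive FRET ratio.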

cSrc = cSrc (Homo sapiens, UniProt P12931); test: c-Src enzyme inhibition (FRET); format: biochemical
cSrc, sequence (P12931 whole entry): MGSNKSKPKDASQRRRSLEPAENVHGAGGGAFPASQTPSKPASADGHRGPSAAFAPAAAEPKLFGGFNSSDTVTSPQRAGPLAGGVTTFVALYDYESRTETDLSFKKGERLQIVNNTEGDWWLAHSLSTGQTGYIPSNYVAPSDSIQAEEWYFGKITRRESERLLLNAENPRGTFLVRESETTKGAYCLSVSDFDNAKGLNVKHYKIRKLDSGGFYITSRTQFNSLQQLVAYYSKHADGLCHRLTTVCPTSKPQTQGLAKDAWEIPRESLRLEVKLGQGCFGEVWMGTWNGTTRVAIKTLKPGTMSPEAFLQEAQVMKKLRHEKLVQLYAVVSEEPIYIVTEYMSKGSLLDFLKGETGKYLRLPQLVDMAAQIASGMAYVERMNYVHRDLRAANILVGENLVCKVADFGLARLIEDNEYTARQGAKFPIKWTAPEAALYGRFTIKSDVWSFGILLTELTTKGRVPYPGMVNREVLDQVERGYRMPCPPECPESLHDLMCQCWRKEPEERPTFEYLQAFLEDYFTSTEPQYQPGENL
How it was run: as §1

IL-2 release, PBMCs = test: IL-2 release in CD3/CD28 stimulated PBMC cells; format: cell-based; details: Homo sapiens, read-out: IC50 Values for Inhibition of Cytokine Release, PBMCs, IL-2
Experimental: (§2) (c) IL-2 and IFN Gamma Release in CD3/CD28 Stimulated PBMC Cells
(§3) PBMCs from healthy subjects are separated from whole blood using a density gradient (Lymphoprep, Axis-Shield Healthcare). Cells are added to a 96 well plate pre-coated with a mixture of […] monoclonal antibodies (0.3 ug/ml eBioscience and 3 ug/ml BD Pharmingen respectively). Compound at the desired concentration is then added to the wells and the plate left for 3 days under normal tissue culture conditions. Supernatants are harvested and IL-2 and IFN gamma release determined by Sandwich ELISA (Duo-set, R&D System). The IC50 is determined from the dose response curve.

IL-8 release, PBMCs = test: LPS-induced IL-8 release in PBMC cells; format: cell-based; details: Homo sapiens, LPS stimulated, read-out: IC50 Values for Inhibition of Cytokine Release, PBMCs, IL-8
How it was run: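 PBMCs from healthy donors pretreated with compound for 2 h, then stimulated with 1 ng/ml LPS (E. coli 0111:B4) for 24 h at 37 °C, 5% CO2. Supernatant IL-8 and TNFα measured by sandwich ELISA with fluorescence read-out.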

IL-8 release, HT29 cells = test: IL-1β-induced IL-8 release in HT29 cells; format: cell-based; details: Homo sapiens, HT-29; IL-1β stimulated; read-out: IC50 Values for Inhibition of Cytokine Release, HT29 cells, IL-8
Experimental: (d) IL-1β-Induced IL-8 Release in HT29 Cells
HT29 cells, a human colon adenocarcinoma cell line, are plated in a 96 well plate (24 hrs) and pre-treated with compounds at the desired concentration for 2 hours before addition of 5 ng/ml of IL-1β (Abeam) for 24 hours, Supernatants are harvested for IL-8 quantification by Sandwich ELISA (Duo-set, R&D System). The IC50 is determined from the dose response curve.

[6] = biological target: T2, human ether a go-go (hERG) channel (Homo sapiens, UniProt Q12809); test: hERG inhibition (IonWorks patch clamp electrophysiology); format: cell-based; details: maximum final assay concentration 3 μM
T2 construct: a Chinese Hamster Lung cell line stably expressing the full length hERG channel
T2 sequence (Q12809 whole entry): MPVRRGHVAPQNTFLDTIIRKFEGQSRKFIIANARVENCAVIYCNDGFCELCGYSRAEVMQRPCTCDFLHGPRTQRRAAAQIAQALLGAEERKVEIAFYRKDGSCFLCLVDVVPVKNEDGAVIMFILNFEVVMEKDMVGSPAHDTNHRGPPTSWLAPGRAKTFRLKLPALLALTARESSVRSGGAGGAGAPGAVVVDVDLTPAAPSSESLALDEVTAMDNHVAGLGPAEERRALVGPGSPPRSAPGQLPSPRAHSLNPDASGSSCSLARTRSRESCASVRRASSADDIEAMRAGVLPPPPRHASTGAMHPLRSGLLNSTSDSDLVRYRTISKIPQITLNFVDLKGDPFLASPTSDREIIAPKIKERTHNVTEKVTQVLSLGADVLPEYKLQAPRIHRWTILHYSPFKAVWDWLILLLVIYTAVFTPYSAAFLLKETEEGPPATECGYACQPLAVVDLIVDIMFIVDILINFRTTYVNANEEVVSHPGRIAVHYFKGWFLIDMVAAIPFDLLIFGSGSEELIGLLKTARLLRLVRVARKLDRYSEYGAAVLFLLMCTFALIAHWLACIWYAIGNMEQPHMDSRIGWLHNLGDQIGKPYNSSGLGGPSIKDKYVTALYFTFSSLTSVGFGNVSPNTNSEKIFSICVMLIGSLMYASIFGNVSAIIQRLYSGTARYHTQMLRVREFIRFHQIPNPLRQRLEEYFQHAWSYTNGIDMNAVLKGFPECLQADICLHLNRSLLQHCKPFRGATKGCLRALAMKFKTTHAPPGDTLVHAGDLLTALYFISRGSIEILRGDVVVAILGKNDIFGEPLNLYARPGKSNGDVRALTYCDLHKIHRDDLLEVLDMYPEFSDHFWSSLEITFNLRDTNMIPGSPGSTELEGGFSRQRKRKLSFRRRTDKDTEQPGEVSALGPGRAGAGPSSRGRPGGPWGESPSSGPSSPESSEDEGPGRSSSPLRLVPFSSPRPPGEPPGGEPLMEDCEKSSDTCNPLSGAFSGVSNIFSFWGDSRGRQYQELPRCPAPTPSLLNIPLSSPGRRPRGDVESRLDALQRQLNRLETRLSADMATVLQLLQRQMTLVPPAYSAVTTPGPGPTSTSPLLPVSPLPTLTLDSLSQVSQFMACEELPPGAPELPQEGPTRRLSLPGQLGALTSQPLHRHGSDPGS
Experimental: Eight-point concentration curves were generated using serial 3-fold dilutions from the maximum final assay concentration (3 μM). Electrophysiological recordings were made from a Chinese Hamster Lung cell line stably expressing the full length hERG channel. Single cell ionic currents were measured in the perforated patch clamp configuration (100 μg/mL) amphotericin) at room temperature (21-23° C.) using an IonWorks Quattro instrument. The internal solution contained (mM): 140 KCl, 1 MgCl2, 1 EGTA, 20 HEPES and was buffered to pH 7.3. The external solution contained (mM):138 NaCl, 2.7 KCl, 0.9 CaCl2, 0.5 MgCl2, 8 Na2HPO4, 1.5 KH2PO4, also buffered to pH 7.3. Cells were clamped at a holding potential of −70 mV for 30 s and then stepped to +40 mV for 1 s. This was followed by a hyperpolarising step of 1s to −30 mV to evoke the hERG tail current. This sequence was repeated 5 times at a frequency of 0.25 Hz. Currents were measured from the tail step at the 5th pulse, and referenced to the holding current. Compounds were then incubated for 6-7 minutes prior to a second measurement of the hERG signal using an identical pulse train. Eight-point concentration curves were generated using serial 3-fold dilutions from the maximum final assay concentration (3 μM).

PBMC cells = test: Cell mitosis assay; format: cell-based; details: Homo sapiens, read-out: % Inhibition of mitosis in PBMC cells at 5 μg/mL
How it was run: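 Healthy-donor PBMCs (3 million cells per sample) stimulated with 2% PHA for 48 hr, then exposed 20 hr to varying compound concentrations. Demecolcine (0.1 μg/mL) added 2 hr before collection to arrest cells in metaphase; read by flow cytometry gated on lymphocytes.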

IFN gamma release, PBMCs = test: IFN gamma release in CD3/CD28 stimulated PBMC cells; format: cell-based; details: Homo sapiens, read-out: IC50 Values for Inhibition of Cytokine Release, PBMCs, IFNγ
Experimental: as §2, §3

GSK3α [7] = biological target: T1, GSK3α; test: GSK 3α enzyme inhibition (FRET), Method 2; format: biochemical; details: Table 4a2, different laboratory
mice = test: Mouse cigarette (tobacco) smoke model; format: in vivo; details: 1.75 μg/mouse (35 μL, bid, i.n.)
Text: The result of treatment with compound Example (8) on macrophage and neutrophil accumulation in BALF in the mouse cigarette smoke model was investigated (Table 5).

[8] = Table 4c1, read-out: LPS Induced Release of Cytokine in d-U937 Cells, IL-8 IC50
[9] = Table 4a2, different laboratory

Structure (SMILES) | IC50 (Syk; Table 4a1) | Cell viability at time point in d-U937 cells, 4 h (d-U937 cells) | Cell viability at time point in d-U937 cells, 24 h (d-U937 cells) | IC50 [1] | IC50 [2, 8] | EC50 [3] | IC50 [4] | IC50 (GSK3α [5]) | IC50 (cSrc; Table 4a1) | further results
COc1ccc(Nc2nccc(Oc3ccc(NC(=O)Nc4cc(C(C)(C)C)nn4-c4ccc(C)cc4)c4ccccc34)n2)cc1C(=O)NCCN1CCOCC1 [Example 13, 5-((4-((4-(3-(3-(tert-Butyl)-1-(p-tolyl)-1H-pyrazol-5-yl)ureido)naphthalen-1-yl)oxy)pyrimidin-2-yl)amino)-2-methoxy-N-(2-morpholinoethyl)benzamide] | 0.016 µM | −ve (−ve and +ve indicate that the value is below and above respectively, the no significant effect threshold, defined as 30% inhibition at 1 μg/mL at the time point indicated) | −ve (−ve and +ve indicate that the value is below and above respectively, the no significant effect threshold, defined as 30% inhibition at 1 μg/mL at the time point indicated) | 0.024 µM | 0.0003 µM | 0.0004 µM | 0.0017 µM | 0.672 µM | 0.002 µM | 
COc1ccc(C(=O)NCCN(C)C)cc1Nc1nccc(Oc2ccc(NC(=O)Nc3cc(C(C)(C)C)nn3-c3ccc(C)cc3)c3ccccc23)n1 [Example 29, 3-((4-((4-(3-(3-(tert-butyl)-1-(p-tolyl)-1H-pyrazol-5-yl)ureido)naphthalen-1-yl)oxy)pyrimidin-2-yl)amino)-N-(2-(dimethylamino)ethyl)-4-methoxybenzamide] | 0.147 µM | −ve (−ve and +ve indicate that the value is below and above respectively, the no significant effect threshold, defined as 30% inhibition at 1 μg/mL at the time point indicated) | −ve (−ve and +ve indicate that the value is below and above respectively, the no significant effect threshold, defined as 30% inhibition at 1 μg/mL at the time point indicated) | < 0.001 µM | 0.0137 µM | 0.0038 µM | 0.0151 µM | 3.21 µM | < 0.001 µM | 
C#Cc1cc(Nc2nccc(Oc3ccc(NC(=O)Nc4cc(C(C)(C)C)nn4-c4ccc(C)cc4)c4ccccc34)n2)cc(C(=O)N[C@@H](C)CN2CCOCC2)c1 [Example 81, (S)-3-((4-((4-(3-(3-(tert-Butyl)-1-(p-tolyl)-1H-pyrazol-5-yl)ureido)naphthalen-1-yl)oxy)pyrimidin-2-yl)amino)-5-ethynyl-N-(1-morpholinopropan-2-yl)benzamide] |  |  |  |  |  |  |  |  |  | IC50 (Syk; [9]): 0.061 µM; IC50 ([2]; Table 4c2, different laboratory, read-out: IC50 Values for Inhibition of Cytokine Release, dU937 cells, IL-8): 0.0015 µM; IC50 (IL-2 release, PBMCs): 0.112 µM; IC50 (IL-8 release, PBMCs): 0.0032 µM; IC50 ([3]; Table 4c2, different laboratory, read-out: IC50 Values for Inhibition of Cytokine Release, dU937 cells, TNFα): 0.0014 µM; IC50 (IL-8 release, HT29 cells): 0.0074 µM; IC50 [6]: > 3 µM; inhibition at 5 µg/mL (PBMC cells): -2.6%; IC50 (IFN gamma release, PBMCs): 0.0018 µM; IC50 (cSrc; [9]): 0.021 µM; IC50 (GSK3α [7]): 10.4 µM
CCC(=O)O[C@]1(C(=O)SCF)[C@H](C)C[C@H]2[C@@H]3C[C@H](F)C4=CC(=O)C=C[C@]4(C)[C@@]3(F)[C@@H](O)C[C@@]21C [fluticasone propionate] |  |  |  |  |  |  |  |  |  | neutrophil or macrophage accumulation into airways (mice): did not inhibit
